Source: PMC11411632 (RSC Advances, 2024)

Target: α-amylase
Assay: α-amylase inhibition, starch/DNSA colorimetric assay at […] nm
Format: biochemical

Row | α-Amylase inhibition method IC50 value [µg/mL] | Structure (SMILES)
1 | 200.94 | Cc1ccc(-c2nn(C(=O)c3ccncc3)cc2C(=O)O)cc1 [MPP, 3-(4-methylphenyl)-1-(pyridine-4-carbonyl)-1H-pyrazole-4-carboxylic acid]
2 | 122.17 | O=C(O)c1cn(C(=O)c2ccncc2)nc1-c1ccccc1 [PPP, 3-phenyl-1-(pyridine-4-carbonyl)-1H-pyrazole-4-carboxylic acid]
